We go through one compound from article PMC4045323 (Biochemistry, 2014).

The assay addresses E275C gp120 (Human immunodeficiency virus type 1 group M subtype B, UniProt P35961, E271C). Put plainly: covalent labeling. The class given is biochemical, HIV-1. Particulars: α-biotin Western blot, reactants in 2-fold excess (Figure 3).

Consider `O=C(CCCC[C@@H]1SC[C@@H]2NC(=O)N[C@@H]21)NCCOCCOCCNC(=O)CCN1C(=O)C=CC1=O` [MPB, Maleimide-PEG2-biotin, reference compound], for which the “biotinylation (labeling) of E275C gp120” value is reported as “yields significantly lower”.
